Like-named read-outs stand apart in the source and are kept apart here.
Experiments:
CDK1/Cyclin E1 = CDK1/Cyclin E1 (Homo sapiens, UniProt P06493); experiment: NanoBRET live-cell target engagement, CDK1-NanoLuc/Cyclin E1 in HEK-293; format: binding; settings: 10µM, read-out: CDK1/E1 Inhibition at 10µM (%)
CDK2/Cyclin E1 = CDK2/Cyclin E1 (Homo sapiens, UniProt P24941); experiment: NanoBRET live-cell target engagement, CDK2-NanoLuc/Cyclin E1 in HEK-293; format: binding; settings: 10µM, read-out: CDK2/E1 Inhibition at 10µM (%)
CDK3/Cyclin E1 = CDK3/Cyclin E1 (Homo sapiens, UniProt Q00526); experiment: NanoBRET live-cell target engagement, CDK3-NanoLuc/Cyclin E1 in HEK-293; format: binding; settings: 10µM, read-out: CDK3/E1 Inhibition at 10µM (%)
CDK4/Cyclin D1 = CDK4/Cyclin D1 (Homo sapiens, UniProt P11802); experiment: NanoBRET live-cell target engagement, NanoLuc-CDK4/Cyclin D1 in HEK-293; format: binding; settings: 10µM, read-out: CDK4/D1 Inhibition at 10µM (%)
Sequence of CDK4/Cyclin D1 (P11802 whole entry): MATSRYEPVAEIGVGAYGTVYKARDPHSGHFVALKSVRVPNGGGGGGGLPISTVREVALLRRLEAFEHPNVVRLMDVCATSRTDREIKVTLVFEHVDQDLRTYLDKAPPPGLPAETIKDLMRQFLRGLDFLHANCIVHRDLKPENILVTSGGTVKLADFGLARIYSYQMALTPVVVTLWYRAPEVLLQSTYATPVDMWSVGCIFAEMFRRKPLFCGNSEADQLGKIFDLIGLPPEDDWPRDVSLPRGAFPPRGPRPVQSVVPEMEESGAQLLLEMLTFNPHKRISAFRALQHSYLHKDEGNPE
Sequence of CDK4/Cyclin D1 (P24385 whole entry partner): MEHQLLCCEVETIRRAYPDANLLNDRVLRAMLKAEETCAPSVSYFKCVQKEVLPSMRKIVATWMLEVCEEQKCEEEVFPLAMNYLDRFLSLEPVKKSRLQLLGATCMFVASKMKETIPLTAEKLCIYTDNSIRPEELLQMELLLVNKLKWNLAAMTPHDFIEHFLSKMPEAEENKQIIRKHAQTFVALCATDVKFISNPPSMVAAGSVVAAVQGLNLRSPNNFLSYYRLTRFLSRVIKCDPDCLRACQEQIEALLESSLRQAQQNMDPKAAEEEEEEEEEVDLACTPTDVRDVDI

CDK5/CDK5R1 = CDK5/CDK5R1 (Homo sapiens, UniProt Q00535); experiment: NanoBRET live-cell target engagement, CDK5-NanoLuc/CDK5R1 in HEK-293; format: binding; settings: 10µM, read-out: CDK5/CDK5R1 Inhibition at 10µM (%)
Sequence of CDK5/CDK5R1 (Q00535 whole entry): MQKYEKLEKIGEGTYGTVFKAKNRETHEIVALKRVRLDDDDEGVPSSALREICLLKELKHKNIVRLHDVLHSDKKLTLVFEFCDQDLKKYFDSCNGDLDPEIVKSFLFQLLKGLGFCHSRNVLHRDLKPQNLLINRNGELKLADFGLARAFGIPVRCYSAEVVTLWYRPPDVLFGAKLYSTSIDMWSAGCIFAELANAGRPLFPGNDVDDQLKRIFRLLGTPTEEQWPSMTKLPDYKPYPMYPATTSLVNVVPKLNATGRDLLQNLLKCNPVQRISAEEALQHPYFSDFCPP
Sequence of CDK5/CDK5R1 (Q15078 whole entry partner): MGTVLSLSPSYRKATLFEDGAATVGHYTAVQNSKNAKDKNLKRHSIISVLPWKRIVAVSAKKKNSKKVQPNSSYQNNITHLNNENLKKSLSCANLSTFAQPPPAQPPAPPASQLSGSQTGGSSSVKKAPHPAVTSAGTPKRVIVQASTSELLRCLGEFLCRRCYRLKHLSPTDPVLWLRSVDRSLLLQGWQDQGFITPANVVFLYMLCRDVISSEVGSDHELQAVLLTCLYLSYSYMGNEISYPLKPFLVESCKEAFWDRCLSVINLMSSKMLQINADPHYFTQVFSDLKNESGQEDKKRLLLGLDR

CDK6/Cyclin D1 = CDK6/Cyclin D1 (Homo sapiens, UniProt Q00534); experiment: NanoBRET live-cell target engagement, NanoLuc-CDK6/Cyclin D1 in HEK-293; format: binding; settings: 10µM, read-out: CDK6/D1 Inhibition at 10µM (%)
Sequence of CDK6/Cyclin D1 (Q00534 whole entry): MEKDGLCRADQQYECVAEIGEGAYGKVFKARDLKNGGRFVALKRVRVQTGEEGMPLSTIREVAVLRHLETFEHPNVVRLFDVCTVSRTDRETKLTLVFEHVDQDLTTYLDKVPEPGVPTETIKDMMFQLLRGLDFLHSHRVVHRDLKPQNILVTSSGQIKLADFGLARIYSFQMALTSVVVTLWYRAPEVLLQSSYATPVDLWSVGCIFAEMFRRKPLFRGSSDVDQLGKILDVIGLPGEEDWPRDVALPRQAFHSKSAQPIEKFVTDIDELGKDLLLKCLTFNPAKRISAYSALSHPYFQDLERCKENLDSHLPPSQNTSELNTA
Sequence of CDK6/Cyclin D1 (P24385 whole entry partner): as the sequence (P24385 whole entry partner) above

CDK7 = CDK7 (Homo sapiens, UniProt P50613); experiment: NanoBRET live-cell target engagement, NanoLuc-CDK7 in HEK-293; format: binding; settings: 10µM, read-out: CDK7 Inhibition at 10µM (%)
CDK8/Cyclin C = CDK8/Cyclin C (Homo sapiens, UniProt P49336); experiment: NanoBRET live-cell target engagement, NanoLuc-CDK8/Cyclin C in HEK-293; format: binding; settings: 10µM, read-out: CDK8/C Inhibition at 10µM (%)
Sequence of CDK8/Cyclin C (P49336 whole entry): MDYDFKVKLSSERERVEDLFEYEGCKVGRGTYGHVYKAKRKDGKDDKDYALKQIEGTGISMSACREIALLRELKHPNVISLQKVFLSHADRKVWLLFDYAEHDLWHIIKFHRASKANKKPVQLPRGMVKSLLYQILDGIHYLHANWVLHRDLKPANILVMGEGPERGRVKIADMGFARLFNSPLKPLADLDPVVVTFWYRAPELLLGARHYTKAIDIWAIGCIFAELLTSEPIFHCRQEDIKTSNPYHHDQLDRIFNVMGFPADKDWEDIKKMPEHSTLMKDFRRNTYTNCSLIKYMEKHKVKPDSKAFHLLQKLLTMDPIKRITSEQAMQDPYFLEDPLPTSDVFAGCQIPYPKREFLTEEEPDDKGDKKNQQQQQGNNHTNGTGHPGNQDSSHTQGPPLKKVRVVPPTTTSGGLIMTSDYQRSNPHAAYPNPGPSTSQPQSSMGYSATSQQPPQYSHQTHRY
Sequence of CDK8/Cyclin C (P24863 whole entry partner): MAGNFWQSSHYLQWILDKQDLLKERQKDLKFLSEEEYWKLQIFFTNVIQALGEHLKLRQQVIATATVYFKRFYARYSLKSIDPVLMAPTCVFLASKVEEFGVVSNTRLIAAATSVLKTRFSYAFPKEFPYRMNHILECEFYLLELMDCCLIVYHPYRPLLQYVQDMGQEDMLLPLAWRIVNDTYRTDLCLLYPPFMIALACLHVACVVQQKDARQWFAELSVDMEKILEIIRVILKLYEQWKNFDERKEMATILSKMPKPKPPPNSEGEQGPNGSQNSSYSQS

CDK9/Cyclin K = CDK9/Cyclin K (Homo sapiens, UniProt P50750); experiment: NanoBRET live-cell target engagement, NanoLuc-CDK9/Cyclin K in HEK-293; format: binding; settings: 10µM, read-out: CDK9/K Inhibition at 10µM (%)
CDK11B/Cyclin L2 = CDK11B/Cyclin L2 (Homo sapiens, UniProt P21127); experiment: NanoBRET live-cell target engagement, CDK11B-NanoLuc/Cyclin L2 in HEK-293; format: binding; settings: 10µM, read-out: CDK11b/L2 Inhibition at 10µM (%)
Sequence of CDK11B/Cyclin L2 (P21127 1-782 isoform P21127-2): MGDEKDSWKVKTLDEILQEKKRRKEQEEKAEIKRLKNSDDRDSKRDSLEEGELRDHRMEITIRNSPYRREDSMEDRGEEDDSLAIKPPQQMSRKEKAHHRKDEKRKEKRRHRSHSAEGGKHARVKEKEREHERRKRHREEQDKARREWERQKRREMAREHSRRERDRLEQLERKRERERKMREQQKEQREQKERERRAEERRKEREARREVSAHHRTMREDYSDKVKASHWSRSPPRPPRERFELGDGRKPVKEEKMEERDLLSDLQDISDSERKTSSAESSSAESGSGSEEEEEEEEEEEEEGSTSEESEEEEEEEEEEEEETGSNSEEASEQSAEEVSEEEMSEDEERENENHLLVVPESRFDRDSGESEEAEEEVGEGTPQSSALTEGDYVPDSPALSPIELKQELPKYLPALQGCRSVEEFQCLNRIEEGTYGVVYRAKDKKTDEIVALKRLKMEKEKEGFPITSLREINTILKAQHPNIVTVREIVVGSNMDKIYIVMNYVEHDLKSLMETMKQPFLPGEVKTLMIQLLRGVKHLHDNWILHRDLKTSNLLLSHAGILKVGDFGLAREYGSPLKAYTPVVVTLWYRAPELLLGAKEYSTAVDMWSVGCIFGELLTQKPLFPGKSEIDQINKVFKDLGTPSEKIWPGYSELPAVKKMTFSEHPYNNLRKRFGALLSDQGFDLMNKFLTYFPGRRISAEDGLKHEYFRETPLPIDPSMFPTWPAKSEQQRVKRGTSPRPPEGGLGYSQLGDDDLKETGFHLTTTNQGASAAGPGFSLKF

CDK12/Cyclin K = CDK12/Cyclin K (Homo sapiens, UniProt Q9NYV4); experiment: NanoBRET live-cell target engagement, CDK12-NanoLuc/Cyclin K in HEK-293; format: binding; settings: 10µM, read-out: CDK12/K Inhibition at 10µM (%)
CDK13/Cyclin K = CDK13/Cyclin K (Homo sapiens, UniProt Q14004); experiment: NanoBRET live-cell target engagement, CDK13-NanoLuc/Cyclin K in HEK-293; format: binding; settings: 10µM, read-out: CDK13/K Inhibition at 10µM (%)
CDK14/Cyclin Y = CDK14/Cyclin Y (Homo sapiens, UniProt O94921); experiment: NanoBRET live-cell target engagement, CDK14-NanoLuc/Cyclin Y in HEK-293; format: binding; settings: 10µM, read-out: CDK14/Y Inhibition at 10µM (%)
Sequence of CDK14/Cyclin Y (O94921 whole entry): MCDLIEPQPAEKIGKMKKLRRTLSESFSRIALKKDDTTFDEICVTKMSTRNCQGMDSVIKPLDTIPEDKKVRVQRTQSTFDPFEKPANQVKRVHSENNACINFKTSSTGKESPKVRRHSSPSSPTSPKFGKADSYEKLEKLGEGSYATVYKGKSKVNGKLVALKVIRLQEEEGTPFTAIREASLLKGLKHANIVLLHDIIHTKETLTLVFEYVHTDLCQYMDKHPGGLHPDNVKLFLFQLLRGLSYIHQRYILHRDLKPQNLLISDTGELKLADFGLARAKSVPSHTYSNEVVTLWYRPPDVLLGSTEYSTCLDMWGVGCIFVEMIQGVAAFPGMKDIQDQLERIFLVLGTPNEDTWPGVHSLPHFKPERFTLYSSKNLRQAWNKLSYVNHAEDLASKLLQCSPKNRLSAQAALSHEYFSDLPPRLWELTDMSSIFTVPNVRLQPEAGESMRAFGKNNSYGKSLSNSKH
Sequence of CDK14/Cyclin Y (Q8ND76 whole entry partner): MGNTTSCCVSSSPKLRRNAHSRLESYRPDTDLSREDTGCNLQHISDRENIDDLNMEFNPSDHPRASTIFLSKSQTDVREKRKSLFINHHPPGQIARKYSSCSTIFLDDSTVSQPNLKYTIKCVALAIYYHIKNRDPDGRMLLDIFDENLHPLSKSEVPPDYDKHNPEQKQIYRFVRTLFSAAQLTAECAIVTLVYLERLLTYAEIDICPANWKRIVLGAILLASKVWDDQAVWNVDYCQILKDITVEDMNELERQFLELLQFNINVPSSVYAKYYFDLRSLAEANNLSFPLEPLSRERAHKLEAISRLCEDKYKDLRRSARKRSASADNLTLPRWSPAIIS

CDK15/Cyclin Y = CDK15/Cyclin Y (Homo sapiens, UniProt Q96Q40); experiment: NanoBRET live-cell target engagement, NanoLuc-CDK15/Cyclin Y in HEK-293; format: binding; settings: 10µM, read-out: CDK15/Y Inhibition at 10µM (%)
CDK16/Cyclin Y = CDK16/Cyclin Y (Homo sapiens, UniProt Q00536); experiment: NanoBRET live-cell target engagement, CDK16-NanoLuc/Cyclin Y in HEK-293; format: binding; settings: for inhibition at 10 µM: read-out: CDK16/Y Inhibition at 10µM (%); for IC50: read-out: CDK16/Y IC50
CDK17/Cyclin Y = CDK17/Cyclin Y (Homo sapiens, UniProt Q00537); experiment: NanoBRET live-cell target engagement, CDK17-NanoLuc/Cyclin Y in HEK-293; format: binding; settings: for inhibition at 10 µM: read-out: CDK17/Y Inhibition at 10µM (%); for IC50: read-out: CDK17/Y IC50
CDK18/Cyclin Y = CDK18/Cyclin Y (Homo sapiens, UniProt Q07002); experiment: NanoBRET live-cell target engagement, CDK18-NanoLuc/Cyclin Y in HEK-293; format: binding; settings: 10µM, read-out: CDK18/Y Inhibition at 10µM (%)
CDK20/Cyclin H = CDK20/Cyclin H (Homo sapiens, UniProt Q8IZL9); experiment: NanoBRET live-cell target engagement, NanoLuc-CDK20/Cyclin H in HEK-293; format: binding; settings: 10µM, read-out: CDK20/H Inhibition at 10µM (%)
CDK19/Cyclin C = CDK19/Cyclin C (Homo sapiens, UniProt Q9BWU1); experiment: NanoBRET live-cell target engagement, NanoLuc-CDK19/Cyclin C in HEK-293; settings: read-out: CDK19/C Inhibition at 10µM (%), 10µM
CDK10/Cyclin L2 = CDK10/Cyclin L2 (Homo sapiens, UniProt Q15131); experiment: NanoBRET live-cell target engagement, CDK10-NanoLuc/Cyclin L2 in HEK-293; settings: read-out: CDK10/L2 Inhibition at 10µM (%), 10µM

Sequence of CDK1/Cyclin E1 (P06493 whole entry): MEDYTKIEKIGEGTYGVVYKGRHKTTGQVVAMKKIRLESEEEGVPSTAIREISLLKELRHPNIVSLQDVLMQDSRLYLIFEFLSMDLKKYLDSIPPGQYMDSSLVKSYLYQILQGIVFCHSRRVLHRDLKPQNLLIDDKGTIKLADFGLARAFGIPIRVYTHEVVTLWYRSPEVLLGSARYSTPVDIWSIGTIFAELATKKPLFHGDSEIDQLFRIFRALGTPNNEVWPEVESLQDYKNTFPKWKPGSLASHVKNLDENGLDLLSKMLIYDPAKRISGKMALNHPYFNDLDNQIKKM
Sequence of CDK1/Cyclin E1 (P24864 whole entry partner): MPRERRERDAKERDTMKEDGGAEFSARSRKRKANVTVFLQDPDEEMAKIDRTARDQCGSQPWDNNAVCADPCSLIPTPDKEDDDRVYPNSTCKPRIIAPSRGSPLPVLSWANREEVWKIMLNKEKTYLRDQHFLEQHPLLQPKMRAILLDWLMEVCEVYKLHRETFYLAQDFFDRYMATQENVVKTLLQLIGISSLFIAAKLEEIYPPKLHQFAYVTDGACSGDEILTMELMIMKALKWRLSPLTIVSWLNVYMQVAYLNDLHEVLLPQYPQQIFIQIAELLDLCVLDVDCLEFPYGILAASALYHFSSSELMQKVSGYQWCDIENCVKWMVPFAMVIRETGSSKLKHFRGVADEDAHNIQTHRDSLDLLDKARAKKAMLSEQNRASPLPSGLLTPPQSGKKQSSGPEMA

CN1CCN(c2ccc(Nc3ncc4cc5n(c4n3)C3(CCCCC3)CNC5=O)nc2)CC1 [Trilaciclib]
inhibition at 10 µM (CDK1/Cyclin E1; average of experiments): 8.6%
inhibition at 10 µM (CDK1/Cyclin E1; independent experiment 1): 17.2%
inhibition at 10 µM (CDK1/Cyclin E1; independent experiment 2): -0.0634%
inhibition at 10 µM (CDK2/Cyclin E1; average of experiments): 0.461%
inhibition at 10 µM (CDK2/Cyclin E1; independent experiment 1): 1.5%
inhibition at 10 µM (CDK2/Cyclin E1; independent experiment 2): -0.535%
inhibition at 10 µM (CDK3/Cyclin E1; average of experiments): 2.3%
inhibition at 10 µM (CDK3/Cyclin E1; independent experiment 1): 3.5%
inhibition at 10 µM (CDK3/Cyclin E1; independent experiment 2): 1.1%
inhibition at 10 µM (CDK4/Cyclin D1; average of experiments): 93%
inhibition at 10 µM (CDK4/Cyclin D1; independent experiment 1): 97%
inhibition at 10 µM (CDK4/Cyclin D1; independent experiment 2): 88.9%
inhibition at 10 µM (CDK5/CDK5R1; average of experiments): -10.2%
inhibition at 10 µM (CDK5/CDK5R1; independent experiment 1): 2.3%
inhibition at 10 µM (CDK5/CDK5R1; independent experiment 2): -22.7%
inhibition at 10 µM (CDK6/Cyclin D1; average of experiments): 99.4%
inhibition at 10 µM (CDK6/Cyclin D1; independent experiment 1): 98.4%
inhibition at 10 µM (CDK6/Cyclin D1; independent experiment 2): 100%
inhibition at 10 µM (CDK7; average of experiments): 8.6%
inhibition at 10 µM (CDK7; independent experiment 1): -3.8%
inhibition at 10 µM (CDK7; independent experiment 2): 20.9%
inhibition at 10 µM (CDK8/Cyclin C; average of experiments): 7.6%
inhibition at 10 µM (CDK8/Cyclin C; independent experiment 1): 7.9%
inhibition at 10 µM (CDK8/Cyclin C; independent experiment 2): 7.4%
inhibition at 10 µM (CDK9/Cyclin K; average of experiments): 38.1%
inhibition at 10 µM (CDK9/Cyclin K; independent experiment 1): 30%
inhibition at 10 µM (CDK9/Cyclin K; independent experiment 2): 46.2%
inhibition at 10 µM (CDK11B/Cyclin L2; average of experiments): 23.5%
inhibition at 10 µM (CDK11B/Cyclin L2; independent experiment 1): 6.3%
inhibition at 10 µM (CDK11B/Cyclin L2; independent experiment 2): 40.7%
inhibition at 10 µM (CDK12/Cyclin K; average of experiments): -2.6%
inhibition at 10 µM (CDK12/Cyclin K; independent experiment 1): -5.3%
inhibition at 10 µM (CDK12/Cyclin K; independent experiment 2): 0.155%
inhibition at 10 µM (CDK13/Cyclin K; average of experiments): 3.3%
inhibition at 10 µM (CDK13/Cyclin K; independent experiment 1): 1.9%
inhibition at 10 µM (CDK13/Cyclin K; independent experiment 2): 4.7%
inhibition at 10 µM (CDK14/Cyclin Y; average of experiments): 11.3%
inhibition at 10 µM (CDK14/Cyclin Y; independent experiment 1): 16.4%
inhibition at 10 µM (CDK14/Cyclin Y; independent experiment 2): 6.2%
inhibition at 10 µM (CDK15/Cyclin Y; average of experiments): 8%
inhibition at 10 µM (CDK15/Cyclin Y; independent experiment 1): 2.9%
inhibition at 10 µM (CDK15/Cyclin Y; independent experiment 2): 13.1%
inhibition at 10 µM (CDK16/Cyclin Y; independent experiment 1): 57.8%
inhibition at 10 µM (CDK16/Cyclin Y; independent experiment 2): 35.1%
IC50 (CDK16/Cyclin Y; average (± SEM where n=3)): 600 ± 200 nM
IC50 (CDK16/Cyclin Y; independent experiment 1): 162 nM
IC50 (CDK16/Cyclin Y; independent experiment 2): 870 nM
IC50 (CDK16/Cyclin Y; independent experiment 3): 721 nM
inhibition at 10 µM (CDK17/Cyclin Y; average of experiments): 41.1%
inhibition at 10 µM (CDK17/Cyclin Y; independent experiment 1): 49.5%
inhibition at 10 µM (CDK17/Cyclin Y; independent experiment 2): 32.7%
IC50 (CDK17/Cyclin Y; average (± SEM where n=3)): 500 ± 200 nM
IC50 (CDK17/Cyclin Y; independent experiment 1): 113 nM
IC50 (CDK17/Cyclin Y; independent experiment 2): 800 nM
IC50 (CDK17/Cyclin Y; independent experiment 3): 628 nM
inhibition at 10 µM (CDK18/Cyclin Y; average of experiments): 13.4%
inhibition at 10 µM (CDK18/Cyclin Y; independent experiment 1): 6.3%
inhibition at 10 µM (CDK18/Cyclin Y; independent experiment 2): 20.6%
inhibition at 10 µM (CDK20/Cyclin H; independent experiment 1): 10%
inhibition at 10 µM (CDK20/Cyclin H; independent experiment 2): 5.6%
inhibition at 10 µM (CDK19/Cyclin C; average of experiments): 9.4%
inhibition at 10 µM (CDK19/Cyclin C; independent experiment 1): 10.3%
inhibition at 10 µM (CDK19/Cyclin C; independent experiment 2): 8.5%
inhibition at 10 µM (CDK10/Cyclin L2; average of experiments): 11.6%
inhibition at 10 µM (CDK10/Cyclin L2; independent experiment 1): 13.3%
inhibition at 10 µM (CDK10/Cyclin L2; independent experiment 2): 9.9%

From publication PMC7265341, “Quantifying CDK inhibitor selectivity in live cells” (Nature Communications, 2020)
